These results are taken from patent US9598396B2, “Tetrahydrophenanthridinones and tetrahydrocyclopentaquinolinones as PARP and tubulin polymerization inhibitors” (Janssen Pharmaceutica NV, priority 2008, dated 2017).

Holding throughout (assay type): biochemical
One assay has as its target Human PARP-1 enzyme (Homo sapiens (Human), UniProt P09874). Nature of the assay: In vitro Scintillation Proximity Assay (SPA) for PARP-1 inhibitory activity. The conditions noted are these: nicked DNA activated PARP-1, [3H]-NAD+, biotinylated histones. The method, then: C.1.In Vitro Scintillation Proximity Assay (SPA) for PARP-1 Inhibitory Activity
Compounds of the present invention were tested in an in vitro assay based on SPA technology (proprietary to GE healthcare).
In principle, the assay relies upon the well established SPA technology for the detection of poly(ADP-ribosyl)ation of biotinylated target proteins, i.e histones. This ribosylation is induced using nicked DNA activated PARP-1 enzyme and [^3H]-nicotinamide adenine dinucleotide ([^3H]-NAD^+) as ADP-ribosyl donor.
Histones (type II-A, supplier: Sigma) were biotinylated using the biotinylation kit of Amersham and stored aliquoted at −20° C. A stock solution of 100 mg/ml SPA poly(vinyl toluene) (PVT) beads (supplier: Amersham) was made in PBS. A stock solution of 61.6 nM […] was made by adding [^3H]-NAD^+ (0.1 mCi/ml, supplier: Perkin Elmer) to incubation buffer (50 mM Tris/HCl, pH 8; 0.2 mM DTT; 4 mM MgCl2). A solution of 4 mM NAD^+ (supplier: Sigma) was made. Human PARP-1 enzyme was obtained from Trevigen. Biotinylated histones and PVT-SPA beads were mixed and pre-incubated for 30 minutes at room temperature. PARP-1 enzyme (concentration was lot dependent) was mixed with the nicked DNA and the mixture was pre-incubated for 30 minutes at 4° C. Equal parts of this histones/PVT-SPA beads solution and PARP-1 enzyme/DNA solution were mixed and 75 μl of this mixture together with 1 μl of compound in DMSO and 25 μl of [^3H]-NAD^+was added per well into a 96-well microtiterplate. The final concentrations in the incubation mixture were 2 μg/ml for the biotinylated histones, 2 mg/ml for the PVT-SPA beads, 0.25 μg/ml for the nicked DNA and between 0.1-0.2 μg/ml for the PARP-1 enzyme. After incubation of the mixture for 20 minutes at room temperature, the reaction was terminated by adding 100 μl of 4 mM NAD^+ in water (final concentration 2 mM) and plates were mixed. The beads were sedimented by centrifugation (10 min, 800 rpm) and plates transferred to a TopCountNXT™ (Packard) for scintillation counting, values were expressed as counts per minute (cpm). For each experiment, controls (containing PARP-1 enzyme and DMSO without compound), a blank incubation (containing DMSO but no PARP-1 enzyme, no DNA or compound) and samples (containing PARP-1 enzyme, DNA and compound dissolved in DMSO) were run in parallel. All compounds tested were dissolved and eventually further diluted in DMSO. A dose-response curve was made wherein the compounds were tested at concentrations between 10^−5M and 3×10^−9M. In each test, the blank value was subtracted from both the control and the sample values. The control sample represented maximal PARP-1 enzyme activity. For each sample, the amount of cpm was expressed as a percentage of the mean cpm value of the controls. […] Herein the effects of test compounds are expressed as pIC50 (the negative log value of the IC50-value). As a reference compound, 4-amino-1,8-naphthalimide was included to validate the SPA assay.
For orientation: SPA uses beads or plates that emit light when radiolabelled molecules are held near them.

Another assay has as its target TANK-2 enzyme (Homo sapiens (Human), UniProt Q9H2K2). Nature of the assay: In vitro Scintillation Proximity Assay (SPA) for TANK-2 inhibitory activity. The conditions noted are these: auto-poly(ADP-ribosyl)ation, [3H]-NAD+, Ni flash plates (96 or 384 well). How it is done:
C.2.In Vitro Scintillation Proximity Assay (SPA) for TANK-2 Inhibitory Activity
Compounds of the present invention were tested in an in vitro assay based on SPA technology with Ni Flash plates (96 or 384 well).
In principle, the assay relies upon SPA technology for the detection of auto-poly(ADP-ribosyl)ation of TANK-2 protein using [^3H]-nicotinamide adenine dinucleotide ([^3H]-NAD^+) as ADP-ribosyl donor.
A stock solution of 100 nM [^3H]-NAD^+/NAD (0.1 mCi/ml, supplier: Perkin Elmer) and 25 μM NAD (Sigma) was made in assay buffer (60 mM Tris/HCl, pH 7.4; 0.9 mM DTT; 6 mM MgCl2). The TANK-2 enzyme was produced as described in EP1238063. 60 μl of assay buffer, together with 1 μl of compound in DMSO, 20 μl of [^3H]-NAD^+/NAD and 20 μl of TANK-2 enzyme (final concentration 8 μg/ml) was added per well into a 96-well Ni-coated flash plate (Perkin Elmer). After incubation of the mixture for 120 minutes at room temperature, the reaction was terminated by adding 60 μl of stopsolution (42.6 mg NAD in 6 ml H2O). The plates were covered with a plate sealer and placed in a TopCountNXT™ (Packard) for scintillation counting. Values were expressed as counts per minute (cpm). For each experiment, controls (containing TANK-2 enzyme and DMSO without compound), a blank incubation (containing DMSO but no TANK-2 enzyme or compound) and samples (containing TANK-2 enzyme and compound dissolved in DMSO) were run in parallel. All compounds tested were dissolved and eventually further diluted in DMSO. In first instance, compounds were tested at a concentration of 10^−5M. […] In each test, the blank value was subtracted from both the control and the sample values. The control sample represented maximal TANK-2 enzyme activity. For each sample, the amount of cpm was expressed as a percentage of the mean cpm value of the controls. […] Herein the effects of test compounds are expressed as pIC50 (the negative log value of the IC50-value). As reference compounds, 3-aminobenzamide and 4-amino-1,8-naphtalimide were included to validate the SPA assay. Herein the assay was described using 96-well plates. In the assay using 384-well plates the same final concentrations were used and volumes were adapted.

The test system of another assay is tubulin. Nature of the assay: Tubulin polymerization assay. The settings on record: inhibition of polymerization at 20 μM and 5 μM. How it is done: Example C.5 Polymerization Assay
The tubulin polymerization assay is an adaptation of an assay originally described by Bonne, D. et al. (J. Biol. Chem., 1985, 260:2819-25). The assay kit was purchased from Cytoskeleton, Inc. (catalogue number BK011) and the assay was performed as described by the supplier with the following modifications. The assay was run in a 384-well black Proxiplate (Perkin Elmer) and volumes were adapted accordingly. The reactions were carried out in a final volume of 10 μl. Compounds were added to 25 μl of the reaction mix in 96-well PP plates (Corning) on ice and 10 μl of this mixture was dispensed into duplicates of the 384-well Proxiplates pre-warmed to 37° C. in a Fluoroskan Ascent plate reader (Thermo Scientific). Fluorescence measurements were taken every minute for one hour. The maximum slope of each well was determined (linear regression through 4 consecutive points) and polymerization was calculated as a percentage of polymerization observed in the absence of compound.

Sequence of TANK-2 enzyme (Q9H2K2 whole entry): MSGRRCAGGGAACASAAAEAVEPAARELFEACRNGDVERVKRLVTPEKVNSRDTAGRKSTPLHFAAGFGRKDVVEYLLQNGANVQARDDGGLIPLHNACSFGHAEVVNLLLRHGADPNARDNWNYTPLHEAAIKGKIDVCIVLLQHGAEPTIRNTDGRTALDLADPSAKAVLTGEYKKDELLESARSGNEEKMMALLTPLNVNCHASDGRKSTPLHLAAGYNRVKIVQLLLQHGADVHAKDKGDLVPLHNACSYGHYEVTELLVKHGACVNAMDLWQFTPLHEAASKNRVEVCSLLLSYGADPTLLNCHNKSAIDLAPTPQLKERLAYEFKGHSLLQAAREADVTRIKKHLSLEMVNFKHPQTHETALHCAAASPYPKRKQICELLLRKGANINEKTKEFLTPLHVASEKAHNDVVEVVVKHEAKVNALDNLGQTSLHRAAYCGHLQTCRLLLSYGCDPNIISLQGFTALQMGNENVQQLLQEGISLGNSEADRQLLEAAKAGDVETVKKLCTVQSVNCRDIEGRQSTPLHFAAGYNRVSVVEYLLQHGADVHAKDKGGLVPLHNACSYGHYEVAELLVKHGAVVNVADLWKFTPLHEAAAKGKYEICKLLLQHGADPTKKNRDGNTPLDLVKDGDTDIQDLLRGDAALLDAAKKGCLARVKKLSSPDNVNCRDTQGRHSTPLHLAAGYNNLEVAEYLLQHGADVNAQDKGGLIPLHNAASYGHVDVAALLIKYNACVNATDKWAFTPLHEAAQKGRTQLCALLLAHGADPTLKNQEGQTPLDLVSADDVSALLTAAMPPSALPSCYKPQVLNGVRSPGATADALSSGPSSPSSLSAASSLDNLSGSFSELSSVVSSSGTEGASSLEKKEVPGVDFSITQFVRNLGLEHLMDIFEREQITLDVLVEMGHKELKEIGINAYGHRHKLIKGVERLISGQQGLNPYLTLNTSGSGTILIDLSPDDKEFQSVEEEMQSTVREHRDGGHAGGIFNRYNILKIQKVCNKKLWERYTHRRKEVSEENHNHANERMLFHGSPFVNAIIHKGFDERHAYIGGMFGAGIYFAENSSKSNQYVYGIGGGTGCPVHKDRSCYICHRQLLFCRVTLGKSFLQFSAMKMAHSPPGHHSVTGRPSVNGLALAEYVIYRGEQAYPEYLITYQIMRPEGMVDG
Sequence of Human PARP-1 enzyme (P09874 whole entry): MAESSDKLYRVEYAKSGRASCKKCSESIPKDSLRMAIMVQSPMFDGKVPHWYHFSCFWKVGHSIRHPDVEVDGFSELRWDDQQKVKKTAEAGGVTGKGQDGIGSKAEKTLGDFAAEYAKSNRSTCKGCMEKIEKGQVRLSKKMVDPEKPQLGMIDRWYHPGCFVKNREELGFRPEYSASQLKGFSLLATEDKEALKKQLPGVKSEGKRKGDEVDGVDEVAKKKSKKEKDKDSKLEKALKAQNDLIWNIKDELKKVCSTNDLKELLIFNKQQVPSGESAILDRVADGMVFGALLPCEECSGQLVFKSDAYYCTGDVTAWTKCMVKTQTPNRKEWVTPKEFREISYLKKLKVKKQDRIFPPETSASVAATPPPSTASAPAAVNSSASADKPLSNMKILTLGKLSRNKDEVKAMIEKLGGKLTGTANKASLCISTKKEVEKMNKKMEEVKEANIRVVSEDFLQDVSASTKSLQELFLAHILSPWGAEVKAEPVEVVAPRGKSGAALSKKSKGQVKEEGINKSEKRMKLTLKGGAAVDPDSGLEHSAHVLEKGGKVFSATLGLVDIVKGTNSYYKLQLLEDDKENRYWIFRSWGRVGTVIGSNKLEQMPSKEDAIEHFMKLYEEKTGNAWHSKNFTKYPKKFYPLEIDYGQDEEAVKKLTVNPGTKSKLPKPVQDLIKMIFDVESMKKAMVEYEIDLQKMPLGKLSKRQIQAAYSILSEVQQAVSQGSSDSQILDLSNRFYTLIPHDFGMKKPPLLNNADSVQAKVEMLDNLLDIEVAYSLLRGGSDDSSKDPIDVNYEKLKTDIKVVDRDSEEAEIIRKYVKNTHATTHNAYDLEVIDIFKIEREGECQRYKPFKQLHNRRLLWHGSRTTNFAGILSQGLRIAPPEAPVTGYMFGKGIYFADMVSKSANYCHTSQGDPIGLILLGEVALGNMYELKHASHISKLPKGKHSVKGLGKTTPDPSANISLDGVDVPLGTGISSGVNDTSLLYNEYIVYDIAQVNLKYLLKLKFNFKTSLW

As to `CC(C#N)(Cc1cccc(Cl)c1)c1ccc2c3c(c(=O)[nH]c2c1)CCCC3` (stereo not drawn) [Co. No. 8], the “in vitro SPA assay PARP-1 pIC50” value at Human PARP-1 enzyme worked out at 7.08. The “in vitro SPA assay TANK-2 pIC50” value at TANK-2 enzyme is given as 7.28. In addition, the “Assay Tubulin Polymerization score” value in the assay with tubulin came out at 2.

With `CC(C#N)(Cc1ccccc1)c1ccc2c3c(c(=O)[nH]c2c1)CCCC3` (stereo not drawn) [Co. No. 1], on Human PARP-1 enzyme, the “in vitro SPA assay PARP-1 pIC50” value stood at 7.44. The “in vitro SPA assay TANK-2 pIC50” value at TANK-2 enzyme worked out at 7.85. In addition, in the assay on tubulin, the “Assay Tubulin Polymerization score” value came to 2.

As to `CC(C#N)(Cc1cccc(C#N)c1)c1ccc2c3c(c(=O)[nH]c2c1)CCCC3` (stereo not drawn) [Co. No. 4], at Human PARP-1 enzyme, the “in vitro SPA assay PARP-1 pIC50” value is 9.03. Further, the “in vitro SPA assay TANK-2 pIC50” value on TANK-2 enzyme worked out at 7.76. Also, the “Assay Tubulin Polymerization score” value in the assay with tubulin was found to be 2.

Take `CC(C#N)(Cc1cccc(C#N)n1)c1ccc2c3c(c(=O)[nH]c2c1)CCCC3` (stereo not drawn) [Co. No. 7]: the “in vitro SPA assay PARP-1 pIC50” value on Human PARP-1 enzyme is given as 8.38. Further, the “in vitro SPA assay TANK-2 pIC50” value at TANK-2 enzyme worked out at 8.02. Moreover, the “Assay Tubulin Polymerization score” value in the assay with tubulin is recorded as 3 (a compound showing more than 50% inhibition at 5 μM is reported as score 3).

Turning to `CC(C#N)(Cc1cccc(F)c1)c1ccc2c3c(c(=O)[nH]c2c1)CCCC3` (stereo not drawn) [Co. No. 5], the “in vitro SPA assay PARP-1 pIC50” value on Human PARP-1 enzyme stood at 9.01. For the same compound, the “in vitro SPA assay TANK-2 pIC50” value on TANK-2 enzyme came to 7.71. For the same compound, the “Assay Tubulin Polymerization score” value in the assay with tubulin worked out at 2.

For the compound `CC(C#N)(CCOc1ccc(C#N)cc1)c1ccc2c3c(c(=O)[nH]c2c1)CCCC3` (stereo not drawn) [Co. No. 17], at Human PARP-1 enzyme, the “in vitro SPA assay PARP-1 pIC50” value is recorded as 7.35. The “in vitro SPA assay TANK-2 pIC50” value on TANK-2 enzyme came out at 7.28. In the assay with tubulin, the “Assay Tubulin Polymerization score” value was determined as 2.
